In patent US20100331269A1, “TRITERPENES DERIVATIVES AND USES THEREOF AS ANTITUMOR AGENTS OR ANTI-INFLAMMATORY AGENTS” (priority 2006, published 2010):

What was measured:
[1] = test system: WS-1 human normal skin fibroblasts; assay: Cytotoxicity, resazurin metabolism assay, WS-1; assay type: cell-based; conditions: 48 h, mean ± SD
Source text: (§1) Human lung carcinoma (A-549), human colon adenocarcinoma (DLD-1), human normal fibroblasts (WS1), mice melanoma (B16-F1), Human glioma (U-251), Human hepatocellular carcinoma (HEP G2), Human prostate adenocarcinoma (PC-3), Human ovary teratocarcinoma metastatic (PA-1), Human breast adenocarcinona metastatic (MDA-MB-231), Human breast adenocarcinoma (MCF-7) and Human malignant melanoma (SK-MEL-2) cell lines were obtained from the American Type Culture Collection (ATCC). All cell lines were cultured in minimum essential medium containing Earle's salts and L-glutamine (Mediatech Cellgro, Va.), to which was added 10% fetal bovine serum (Hyclone), vitamins (1×), penicillin (100 I.U./mL) and streptomycin (100 μg/mL), essential amino acids (1×) and sodium pyruvate (1×) (Mediatech Cellgro, Va.). Cells were kept at 37° C. in a humidified environment containing 5% CO2.
(§2) Exponentially growing cells were plated in 96-well microplates (Costar, Corning Inc.) at a density of 5×10^3 cells per well in 100 μL of culture medium and were allowed to adhere for 16 hours before treatment. Increasing concentrations of each compound in DMSO (Sigma-Aldrich) were then added (100 μL per well) and the cells were incubated for 48 h. […] Cytotoxicity was assessed using resazurin (O'Brien, J. et al., Eur. J. Biochem. 2000, 267, 5421-5426) on an automated 96-well Fluoroskan Ascent F1™ plate reader (Labsystems) using excitation and emission wavelengths of 530 nm and 590 nm, respectively. Fluorescence was proportional to the cellular metabolic activity in each well. Survival percentage was defined as the fluorescence in experimental wells compared to that in control wells after subtraction of blank values. Each experiment was carried out three times in triplicata. IC50 results were expressed as mean±standard deviation.
(§3) The cytotoxicity of triterpenes (1-8) and corresponding glycosides (9-30) (Table 2 below) as well as of germanicane-type triterpenes and glycosides (31-44) (Table 3 below) was assessed towards human cancer (A-549, DLD-1), mouse melanoma (B16-F1) and human normal skin fibroblast (WS1) cell lines using the resazurin reduction test (RTT test) as previously described (O'Brien, J. et al., Eur. J. Biochem. 2000, 267, 5421-5426). Measurements of fluorescence were carried out after 48 continuous hours of contact between compounds and cells. Results presented in Tables 2 and 3 below express the concentration inhibiting 50% of the cell growth (IC50). Known for its activity against A-549, betulinic acid (3) was used as a positive control in this experimentation. […] The cytotoxic activity of some of these compounds was also assessed using the Hoechst DNA assay (Table 4 below).

[2] = test system: MCF-7 human breast adenocarcinoma cells; assay: Cytotoxicity, resazurin metabolism assay, MCF-7; assay type: cell-based; conditions: mean ± SD
Source text: as §1, §2
(§4) Compounds presented in Table 5 below were also tested in the following tumour cell lines: U-251 (Human glioma), HEP G2 (Human hepatocellular carcinoma), PC-3 (Human prostate adenocarcinoma), PA-1 (Human ovary teratocarcinoma metastatic), MDA-MB-231 (Human breast adenocarcinona metastatic), MCF-7 (Human breast adenocarcinoma) and SK-MEL-2 (Human malignant melanoma).

B16-F1 cells = assay: Cytotoxicity, Hoechst DNA assay, B16-F1; assay type: cell-based, mouse; conditions: ± SD
Source text: as §1, §3

[3] = test system: A-549 human lung carcinoma cells; assay: Cytotoxicity, resazurin metabolism assay, A-549; assay type: cell-based; conditions: 48 h, mean ± SD
Source text: as §1, §2, §3

[4] = test system: Hep G2 human hepatocellular carcinoma cells; assay: Cytotoxicity, resazurin metabolism assay, Hep G2; assay type: cell-based; conditions: mean ± SD
Source text: as §1, §2, §4

[5] = test system: PA-1 human ovary teratocarcinoma cells; assay: Cytotoxicity, resazurin metabolism assay, PA-1; assay type: cell-based; conditions: mean ± SD
Source text: as §1, §2, §4

U-251 human glioma cells = assay: Cytotoxicity, resazurin metabolism assay, U-251; assay type: cell-based; conditions: mean ± SD
Source text: as §1, §2, §4

[6] = test system: B16-F1 mouse melanoma cells; assay: Cytotoxicity, resazurin metabolism assay, B16-F1; assay type: cell-based; conditions: 48 h, mean ± SD
Source text: as §1, §2, §3

[7] = test system: MDA-MB-231 human breast adenocarcinoma cells; assay: Cytotoxicity, resazurin metabolism assay, MDA-MB-231; assay type: cell-based; conditions: mean ± SD
Source text: as §1, §2, §4

[8] = test system: DLD-1 human colorectal adenocarcinoma cells; assay: Cytotoxicity, resazurin metabolism assay, DLD-1; assay type: cell-based; conditions: 48 h, mean ± SD
Source text: as §1, §2, §3

DLD-1 cells = assay: Cytotoxicity, Hoechst DNA assay, DLD-1; assay type: cell-based, human; conditions: ± SD
Source text: as §1, §3

[9] = test system: PC-3 human prostate adenocarcinoma cells; assay: Cytotoxicity, resazurin metabolism assay, PC-3; assay type: cell-based; conditions: mean ± SD
Source text: as §1, §2, §4

WS-1 cells = assay: Cytotoxicity, Hoechst DNA assay, WS-1; assay type: cell-based, human; conditions: ± SD
Source text: as §1, §3

[10] = test system: SK-Mel-2 human melanoma cells; assay: Cytotoxicity, resazurin metabolism assay, SK-Mel-2; assay type: cell-based; conditions: mean ± SD
Source text: as §1, §2, §4

A-549 cells = assay: Cytotoxicity, Hoechst DNA assay, A-549; assay type: cell-based, human; conditions: ± SD
Source text: as §1, §3

[11] = test system: Walker 256 murine carcinosarcoma; conditions: cited from earlier work
Lewis lung carcinoma = assay: In vivo antitumoral activity against Lewis lung cancer-bearing mice; parameters: species or system C57BL/6 mouse; conditions: day 13
Experimental: Cell lines and mice preparation: The Lewis lung carcinoma cell lines (#CRL-1642, lot # 4372266, ATCC) and the C57BL/6 mouse strain (Charles River Inc., St-Constant, Qc) were used. Cells were grown to 90% confluence in complete DMEM medium containing Earle's salts and L-glutamine (Mediatech Cellgro, Va.), 10% foetal bovine serum (Hyclone), vitamins (1×), penicillin (100 I.U./mL) and streptomycin (100 μg/mL), essential amino acids (1×) and sodium pyruvate (1×) (Mediatech Cellgro, Va.). Cells were then harvested with up and down only. Cells were counted using a hemacytometer and resuspended in DMEM medium without SVF. 100 μL of a solution containing 1×10^7 cells/mL was inoculated subcutaneously in the right flank of each 6 weeks old mouse on day zero.
The experimental mice were weighed daily.
Data analysis: In vivo antitumor activity was evaluated according to the parameters as follows (Miot-Noirault, E. et al. Invest. New Drugs 2004, 22, 369-378):
(a) Calculated tumour weight (CTW): The CTW of each tumour was estimated from two-dimensional measurements performed once a day with a slide calliper, according to the formula: CTW (mg)=(L×W^2)/2 with L=length in mm and W=width in mm. Differences in CTW between treated and control groups (DMSO) were analyzed for significance using the U Wilcoxon-Mann-Whitney test and Student t-test. Values of p<0.05 were considered statistically significant.
(b) Treated/Control value (T/C) and Tumour Growth Inhibition (TGI):The T/C was calculated as the ratio of the mean CTW of TW of drug-treated mice versus controls: T/C=(CTW of the drug-treated group on Day X/CTW of the control group on Day X)×100. TGI is 100−(T/C) value.

[12] = test system: L1210 murine lymphocytic leukemia; conditions: 200 mg/kg; cited from earlier work
[13] = test system: NO production in lipopolysaccharide (LPS) stimulated cells; conditions: read-out: IC50 (NO production); cells stimulated with 100 ug/ml LPS, 24 h, Griess reaction
Experimental: Exponentially growing cells were plated in 24-well microplates (BD Falcon) at a density of 2×10^5 cells per well in 400 μl of culture medium and were allowed to adhere overnight. Cells were then treated or not with positive control N(G)-nitro-L-arginine methyl ester (L-NAME), or increasing concentrations of methanol extracts dissolved in the appropriate solvents, and incubated at 37° C., 5% CO2 for 24 h. The final concentration of solvent in the culture medium was maintained at 0.5% (volume/volume) to avoid solvent toxicity. Cells were then stimulated with 100 ug/ml lipopolysaccharide (LPS). After 24 h, cell-free supernatants were collected and stored at −80° C. until NO determination using the Griess reaction (Green et al. 1990) with minor modifications. Briefly, 100 μl aliquots of cell supernatants were incubated with 50 μl of 1% sulfanilamide and 50 μl of 0.1% N-1-naphtylethylenediamine dihydrochloride in 2.5% H3PO4 at room temperature for 20 min. Absorbance at 540 nm was then measured using an automated 96-well Varioskan Ascent™ plate reader (Thermo Electron) and the presence of nitrite was quantified by comparison with an NaNO2 standard curve.

Compound	IC50 [1] [µM]	IC50 [2] [µM]	IC50 (B16-F1 cells) [µM]	IC50 [3] [µM]	IC50 [4] [µM]	IC50 [5] [µM]	IC50 (U-251 human glioma cells) [µM]	IC50 [6] [µM]	IC50 [7] [µM]	IC50 [8] [µM]	IC50 (DLD-1 cells) [µM]	IC50 [9] [µM]	IC50 (WS-1 cells) [µM]	IC50 [10] [µM]	IC50 (A-549 cells) [µM]	other results
C=C(C)[C@@H]1CC[C@]2(C)CC[C@]3(C)[C@H](CC[C@@H]4[C@@]5(C)CC[C@H](O[C@@H]6O[C@H](CO)[C@@H](O)[C@H](O)[C@H]6O)C(C)(C)[C@@H]5CC[C@]43C)[C@@H]12 [Compound 9, 3-O-6-D-Glucopyranoside of lupeol]	13.3 ± 0.5	16.4 ± 0.5	18 ± 2	14 ± 1	17.8 ± 0.2	13 ± 1	17.9 ± 0.7	15 ± 0.7	20.9 ± 0.6	14 ± 1	19 ± 1	30 ± 2	20 ± 2	15.5 ± 0.6	22 ± 2	–
C=C(C)[C@@H]1CC[C@]2(C(=O)O)CC[C@]3(C)[C@H](CC[C@@H]4[C@@]5(C)CC[C@H](O)C(C)(C)[C@@H]5CC[C@]43C)[C@@H]12 [Compound 3, Betulinic acid, reference compound]	12 ± 1	–	18 ± 2	10.3 ± 0.4	–	–	–	16.1 ± 0.5	–	15 ± 0.3	12 ± 1	–	14 ± 2	–	8 ± 1	Activity in the Walker 256 model (subsequent report) ([11]; 400 mg/kg): inactive; Activity against the Walker 256 murine carcinosarcoma tumor system ([11]; dose levels of 300 and 500 mg/kg body weight): dose-dependent activity; CTW (calculated tumour weight) (Lewis lung carcinoma; 50 mg/kg IP every 3-4 days): 294 ± 69 mg; T/C (Treated/Control) (Lewis lung carcinoma; 50 mg/kg IP): 90%; TGI (Tumour Growth Inhibition) (Lewis lung carcinoma; 50 mg/kg IP): 10%; CTW (calculated tumour weight) (Lewis lung carcinoma; 100 mg/kg IP every 3-4 days): 264 ± 58 mg; T/C (Treated/Control) (Lewis lung carcinoma; 100 mg/kg IP): 81%; TGI (Tumour Growth Inhibition) (Lewis lung carcinoma; 100 mg/kg IP): 19%; CTW (calculated tumour weight) (Lewis lung carcinoma; 200 mg/kg IP every 3-4 days): 265 ± 58 mg; T/C (Treated/Control) (Lewis lung carcinoma; 200 mg/kg IP): 81%; TGI (Tumour Growth Inhibition) (Lewis lung carcinoma; 200 mg/kg IP): 19%; Activity in the L1210 murine lymphocytic leukemia model [12]: inactive
C=C(C)[C@@H]1CC[C@]2(C(=O)OC)CC[C@]3(C)[C@H](CC[C@@H]4[C@@]5(C)CC[C@H](O[C@@H]6O[C@H](CO)[C@@H](O)[C@H](O)[C@H]6O)C(C)(C)[C@@H]5CC[C@]43C)[C@@H]12 [Compound 18, 3-O-β-D-Glucopyranoside of Methyl Betulinate]	9.3 ± 0.2	110 ± 6	7.2 ± 0.8	8.4 ± 0.3	79 ± 5	60 ± 20	84 ± 2	7.1 ± 0.3	101.7 ± 0.1	3.93 ± 0.09	4 ± 0.2	130 ± 30	12 ± 2	103 ± 4	9.3 ± 0.6	–
C=C(C)C1CCC2(COC3OCC(O)C(O)C3O)CCC3(C)C(CCC4C5(C)CCC(O)C(C)(C)C5CCC43C)C12 [Compound 17, 28-O-α-D-Arabinopyranoside of Betulin]	> 175	–	> 194	> 175	–	–	–	> 175	–	> 175	> 194	–	> 194	–	> 194	IC50 [13]: 25 ± 1 µM
C=C(C)[C@@H]1CC[C@]2(C)CC[C@]3(C)[C@H](CC[C@@H]4[C@@]5(C)CC[C@H](O[C@H]6OC[C@@H](O)[C@@H](O)[C@@H]6O)C(C)(C)[C@@H]5CC[C@]43C)[C@@H]12 [Compound 11, 3-O-α-D-Arabinopyranoside of Lupeol]	15.8 ± 0.8	23 ± 2	28 ± 1	28 ± 2	10 ± 0.9	9.8 ± 0.6	10.1 ± 0.2	27 ± 2	11 ± 1	50 ± 6	69 ± 7	26 ± 3	24 ± 1	10 ± 0.8	34 ± 2	–
C=C(C)[C@@H]1CC[C@]2(C(=O)OC)CC[C@]3(C)[C@H](CC[C@@H]4[C@@]5(C)CC[C@H](O[C@H]6OC[C@@H](O)[C@@H](O)[C@@H]6O)C(C)(C)[C@@H]5CC[C@]43C)[C@@H]12 [Compound 20, 3-O-α-D-Arabinopyranoside of Methyl Betulinate]	12.5 ± 0.4	21 ± 3	12.6 ± 0.5	13.5 ± 0.6	15 ± 2	16 ± 4	15 ± 1	13.3 ± 0.4	16.3 ± 0.8	18 ± 1	16 ± 0.6	17 ± 1	13.2 ± 0.7	16 ± 1	11.7 ± 0.8	–
